Legend:
syngeneic tumor models = assay: Syngeneic tumor models in mice, daily treatment; type: in vivo; details: multiple syngeneic tumor models
Procedure: (§1) Adenosine signaling via A2A receptor (A2AR) on immune cells suppresses anti-tumor immunity and limits the efficacy of immunotherapy, chemotherapy, CAR-T, and vaccines. […] In embodiments, CD73 expression, CD8 infiltration, TREG distribution, and gene expression signatures are evaluated in serial tumor biopsy specimens.

[1] = Phase 1/1b clinical trial, safety and tolerability (Step 1); type: in vivo, human; details: 48 patients treated in Step 1
Source text: FIG. 5 is an illustration of an exemplary Phase 1/1B clinical trial design.
Expansion cohorts include renal cell and non-small cell lung cancer
FIG. 12 provides a summary of data regarding treatment-related adverse events.
as §1

[2] = test system: non-small cell lung, melanoma, renal, triple negative breast, and other (bladder, prostate, head and neck, colorectal) tumors; assay: Phase 1/1b clinical trial, clinical activity / tumor regression; type: in vivo, human; details: single agent
Procedure: The waterfall plot includes all subjects from the clinical trial with available data, including all dosing levels and disease indications. CT scans of target lesions were performed prior to treatment and every 8 weeks post-treatment or at optimal time points. Target lesions were measured and the sum of longest dimensions (SLD) calculated. Subjects with regression of target tumor lesions are enriched for CD8 infiltration of tumors at baseline. […] The best change in SLD for each subject is shown in the waterfall plot colored by the percentage of CD8 infiltration in the center of the pre-treatment biopsy sample as measured by immunohistochemistry. […] A cutoff of 1% (rather than 4% for FIG. 1A) was used to classify subjects enriched for CD8 infiltration.
There were five prior regimens including TKIs, mTOR inhibitor and nivolumab. The patient ultimately failed each prior therapy.
as §1

[3] = test system: peripheral T cell receptor repertoire; assay: Deep sequencing of TCRb in PBMCs, Morisita Index and clonality; type: in vivo, human; details: subjects with baseline peripheral blood clonality within normal healthy range (<0.2); PBMCs day 0 vs day 28 to 56
Procedure: FIGS. 3A-3C: Peripheral blood mononuclear cells (PBMCs) were collected at day 0 and between day 28 and 56. Deep sequencing of TCRb and Moristia and clonality calculations were performed by Adaptive Biotechnologies (Seattle, Wash., USA). T cell receptor (TCR) repertoire clonality was assessed.
Clonality is a measure of the dominance of specific T cell clones within a sample. It can range from 0-1, with 0 meaning each clone appears only once and 1 meaning the sample has only copies of a single clone. […] Clonality<0.2 is within the normal range, >0.2 means that a few clones dominate the sample. Clonality is conceptually the opposite of diversity. A clonality<0.2 is diverse because there a lot of different clones and the sample is not dominated by one or a few clone.
A Morisita Index score indicates the similarity between two samples. […] The Morisita Index can range from 0-1, with 0 meaning the samples are completely different (no shared clones) and a score of 1 meaning the samples are the same. In embodiments, a Morisita Index score>0.9 means very little change (e.g., within the range of sample to sample variation), while a Morisita Index score<0.9 means there was a change within the sample.

adenosine signaling = assay: Functional inhibition of adenosine signaling in cancer patients; type: in vivo, human
Procedure: as §1

In the case of Cc1ccc(-c2nc(N)nc3c2nnn3Cc2cccc(COC3CCOC3)n2)o1 (stereo not shown) [CPI-444], the “inhibition of tumor growth” value (syngeneic tumor models) is reported as “dose-dependent inhibition of tumor growth”, the “Grade 3 or 4 treatment related adverse events” value [1] is reported as 1 and the tolerability [1] is reported as “well tolerated”. The clinical activity ([2]; including patients who previously failed anti-PD-1 therapy) was “Evidence of clinical activity”, the “tumor response (FIG. 6, FIGS. 7A-7B)” value ([2]; nivolumab refractory renal cancer, five prior regimens including TKIs, mTOR inhibitor and nivolumab) was “tumor regression” and the “Morisita Index (change in peripheral TCR repertoire)” value [3] was < 0.9. For the same compound, the “inhibition of adenosine signaling” value (adenosine signaling) was “functional inhibition of adenosine signaling”.
